Results taken from patent US9499553B2 (CHUGAI SEIYAKU KABUSHIKI KAISHA, priority 2013, dated 2016).
Where two headings read alike, the source gives them in different places.

What was measured:
human NaPi-IIb = target: T1, human NaPi-IIb (Homo sapiens, UniProt O95436); assay: Inhibitory effect on 33PO4 uptake into human NaPi-IIb-expressing CHO cells; type: cell-based
T1 construct: expressed in transfected cells
T1 sequence (O95436 1-690): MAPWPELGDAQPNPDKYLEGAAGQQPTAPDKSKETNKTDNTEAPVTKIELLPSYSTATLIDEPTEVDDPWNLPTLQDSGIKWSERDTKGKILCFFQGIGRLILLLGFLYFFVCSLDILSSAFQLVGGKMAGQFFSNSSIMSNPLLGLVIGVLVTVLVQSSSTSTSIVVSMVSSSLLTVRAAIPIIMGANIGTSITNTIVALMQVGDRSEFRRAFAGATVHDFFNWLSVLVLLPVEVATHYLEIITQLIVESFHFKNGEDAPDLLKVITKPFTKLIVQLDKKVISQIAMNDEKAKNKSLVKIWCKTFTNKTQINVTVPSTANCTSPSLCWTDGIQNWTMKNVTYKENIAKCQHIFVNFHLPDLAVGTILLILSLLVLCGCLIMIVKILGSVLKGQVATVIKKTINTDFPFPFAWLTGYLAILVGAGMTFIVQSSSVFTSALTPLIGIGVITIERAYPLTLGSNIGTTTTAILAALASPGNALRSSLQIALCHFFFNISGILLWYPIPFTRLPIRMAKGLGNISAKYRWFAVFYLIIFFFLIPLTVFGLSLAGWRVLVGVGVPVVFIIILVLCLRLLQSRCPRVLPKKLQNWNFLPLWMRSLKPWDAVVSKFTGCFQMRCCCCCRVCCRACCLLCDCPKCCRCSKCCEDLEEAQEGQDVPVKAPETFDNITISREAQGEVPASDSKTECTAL
In short: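 Uptake of ³³PO4 was measured by scintillation counting after ice-cold buffer A washes. Cells were CHO stably expressing human NaPi-IIb, seeded overnight, and exposed to ³³PO4 in buffer A at room temperature.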

[1] = test system: adenine-induced renal failure rat; assay: Suppressive effect on rise in serum phosphorus concentration of adenine-induced renal failure rat (0.1% in feed, 3 days); type: in vivo; conditions: feed or water, 72 h, 0.1% of mass concentration in feed, read-out: Rate of inhibition (%) (suppression of a rise in serum phosphorus concentration)
From the text: Test Example 5: Suppressive Effect on Rise in Serum Phosphorus Concentration of Adenine-Induced Renal Failure Rat
Adenine was forcedly administered orally to each Wistar male rat (7-8 weeks old) to impair renal functions and thereby prepare a hyperphosphatemia model (Katsumata K, Kusano K, Hirata M, Tsunemi K, Nagano N, Burke S K, Fukushima N. Sevelamer hydrochloride prevents ectopic calcification and renal osteodystrophy in chronic renal failure rats. Kidney Int. 2003 August; 64 (2): 441-50). Each test compound was mixed at a ratio of 0.1% of mass concentration with feed. The animal was fed with a given amount of the feed for 3 days. A group given feed non-supplemented with a test compound was used as a reference pathological group, and an adenine-unadministered group given feed non-supplemented with a test compound was used as a normal group. […] Serum phosphorus concentrations were measured by the Fiske-Subbarow method. The rate of suppression of a rise in serum phosphorus concentration was determined according to the following expression: Rate (%) of suppression of a rise in serum phosphorus concentration=(1−[(Serum phosphorus concentration of the test compound-treated pathological group)−(Serum phosphorus concentration of the normal group)]/[(Serum phosphorus concentration of the reference pathological group)−(Serum phosphorus concentration of the normal group)])×100

human PiT-1 = target: T2, human PiT-1 (Homo sapiens, UniProt Q8WUM9); assay: Inhibitory effect on 33PO4 uptake into human PiT-1-expressing CHO cells; type: cell-based; conditions: compound 0.24, 1.2, 6 or 30 μM, pH 6.5, read-out: IC50 against 33PO4 uptake into human PiT-1-expressing cells
T2 construct: expressed in transfected cells; host or cells: CHO cells
T2 sequence (Q8WUM9 1-679): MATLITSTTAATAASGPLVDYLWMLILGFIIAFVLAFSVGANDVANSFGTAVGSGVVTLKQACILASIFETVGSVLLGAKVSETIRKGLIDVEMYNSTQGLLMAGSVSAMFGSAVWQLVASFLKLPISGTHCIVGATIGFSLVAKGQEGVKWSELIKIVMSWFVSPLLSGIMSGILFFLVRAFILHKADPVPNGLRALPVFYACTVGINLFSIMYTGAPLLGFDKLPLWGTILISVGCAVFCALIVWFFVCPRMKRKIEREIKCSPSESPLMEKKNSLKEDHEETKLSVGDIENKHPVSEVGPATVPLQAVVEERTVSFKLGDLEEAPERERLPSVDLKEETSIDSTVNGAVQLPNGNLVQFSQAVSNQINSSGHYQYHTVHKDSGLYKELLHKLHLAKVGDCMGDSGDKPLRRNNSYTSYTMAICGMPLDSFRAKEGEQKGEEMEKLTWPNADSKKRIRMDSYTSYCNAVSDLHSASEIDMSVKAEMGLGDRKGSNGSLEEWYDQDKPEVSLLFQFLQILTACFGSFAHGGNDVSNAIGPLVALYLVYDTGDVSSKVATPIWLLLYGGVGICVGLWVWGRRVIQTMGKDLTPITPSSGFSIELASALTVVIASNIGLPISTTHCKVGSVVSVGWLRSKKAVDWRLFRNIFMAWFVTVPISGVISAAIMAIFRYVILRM
Method: Test Example 3: Inhibitory Effect on ^33PO4 Uptake into Human PiT-1-Expressing Cell
(§1) CHO cells were transfected with human PiT-1 expression plasmids or empty vectors to prepare human PiT-1-expressing cells and empty vector-expressing cells. The human PiT-1-expressing cells or the empty vector-expressing cells were inoculated to a 96-well plate and incubated overnight in a CO2 incubator. […] After a given time, a 1/20 volume of buffer A containing ^33PO4 was added thereto and reacted at room temperature. After washing with ice-cold buffer A, a liquid scintillator was added to each reaction mixture, and the amount of ^33PO4 uptake was measured using TopCount. The rate of inhibition was determined according to the following expression: Rate (%) of inhibition=(1−(Amount of ^33PO4 uptake in the compound-supplemented well containing the human PiT-1-expressing cells−Amount of ^33PO4 uptake in the compound-supplemented well containing the empty vector-expressing cells)/(Amount of ^33PO4 uptake in the DMSO-supplemented well containing the human PiT-1-expressing cells −Amount of ^33PO4 uptake in the DMSO-supplemented well containing the empty vector-expressing cells))×100

human PiT-2 = target: T3, human PiT-2 (Homo sapiens, UniProt Q08357); assay: Inhibitory effect on 33PO4 uptake into human PiT-2-expressing CHO cells; type: cell-based; conditions: pH 6.5, read-out: IC50 against 33PO4 uptake into human PiT-2-expressing cells
T3 construct: expressed in transfected cells; host or cells: CHO cells
T3 sequence (Q08357 1-652): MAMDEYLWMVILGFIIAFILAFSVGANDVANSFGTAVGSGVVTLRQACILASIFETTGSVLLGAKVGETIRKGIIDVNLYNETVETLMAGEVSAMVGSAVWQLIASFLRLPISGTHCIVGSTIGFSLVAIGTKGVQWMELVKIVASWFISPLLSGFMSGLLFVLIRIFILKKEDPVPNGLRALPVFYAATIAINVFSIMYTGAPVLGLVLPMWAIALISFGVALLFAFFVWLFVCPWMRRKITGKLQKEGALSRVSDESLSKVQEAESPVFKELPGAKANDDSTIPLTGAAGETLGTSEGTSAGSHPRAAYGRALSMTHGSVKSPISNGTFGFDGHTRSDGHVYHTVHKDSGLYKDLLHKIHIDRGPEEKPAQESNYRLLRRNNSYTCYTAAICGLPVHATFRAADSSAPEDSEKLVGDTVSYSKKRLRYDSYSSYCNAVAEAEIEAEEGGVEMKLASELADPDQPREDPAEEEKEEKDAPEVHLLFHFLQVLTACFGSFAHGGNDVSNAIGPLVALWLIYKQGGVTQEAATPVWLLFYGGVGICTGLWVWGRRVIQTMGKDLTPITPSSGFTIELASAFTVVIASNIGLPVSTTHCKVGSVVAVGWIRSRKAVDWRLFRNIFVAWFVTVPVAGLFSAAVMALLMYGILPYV
Method: Test Example 4: Inhibitory Effect on ^33PO4 Uptake into Human PiT-2-Expressing Cell
as §1, with “PiT-2” for “PiT-1”, “PiT-2-expressing” for “PiT-1-expressing”

[2] = read-out: IC50 against 33PO4 uptake into human NaPi-IIb-expressing cells

IC50 (human NaPi-IIb; read-out: IC50) [µM] | IC50 (human PiT-1) [µM] | IC50 (human PiT-2) [µM] | IC50 (human NaPi-IIb; [2]) [µM] | SMILES | inhibition in vivo at 0.1 %, 0.1 % in feed [1] [%]
16.8 | – | – | – | C[C@]12CCCN1N(Cc1ccc(OCCN3CCOCC3)c(F)c1F)C(=O)C(C(=O)Nc1ccc(C(F)(F)F)cc1-c1ccnc(C#N)c1)=C2O [Example 52, (4aR)-N-[2-(2-Cyanopyridin-4-yl)-4-(trifluoromethyl)phenyl]-1-[[2,3-difluoro-4-(2-morpholin-4-ylethoxy)phenyl]methyl]-4-hydroxy-4a-methyl-2-oxo-6,7-dihydro-5H-pyrrolo[1,2-b]pyridazine-3-carboxamide] | 20
4.5 | 7.9 | 10.6 | – | CSc1ccc(-c2cc(Cl)ccc2NC(=O)C2=C(O)[C@H](C(C)(C)C)N(C)N(Cc3ccc(OCCN4CCOCC4)c(F)c3F)C2=O)cn1 [Example 269, (3S)-3-tert-Butyl-N-[4-chloro-2-(6-methylsulfanyl-pyridin-3-yl)phenyl]-1-[[2,3-difluoro-4-(2-morpholin-4-ylethoxy)phenyl]methyl]-4-hydroxy-2-methyl-6-oxo-3H-pyridazine-5-carboxamide] | –
14.6 | 3.4 | 3.6 | – | Cc1c(C#N)ncnc1-c1cc(C(F)(F)F)ccc1NC(=O)C1=C(O)[C@H](C(C)(C)C)N(C)N(Cc2ccc(OCCN3CCOCC3)c(F)c2F)C1=O [Example 270, (3S)-3-tert-Butyl-N-[2-(6-cyano-5-methylpyrimidin-4-yl)-4-(trifluoromethyl)phenyl]-1-[[2,3-difluoro-4-(2-morpholin-4-yl-ethoxy)phenyl]methyl]-4-hydroxy-2-methyl-6-oxo-3H-pyridazine-5-carboxamide] | –
19.5 | 3.6 | 10.4 | – | CN1N(Cc2ccc(OCCCCC(=O)O)c(F)c2F)C(=O)C(C(=O)Nc2ccc(C(F)(F)F)cc2-c2cc(C(F)(F)F)ncn2)=C(O)C12CCCC2 [Example 333, 5-[2,3-Difluoro-4-[[10-hydroxy-6-methyl-8-oxo-9-[[4-(trifluoromethyl)-2-[6-(trifluoromethyl)pyrimidin-4-yl]phenyl]carbamoyl]-6,7-diazaspiro[4.5]dec-9-en-7-yl]methyl]phenoxy]pentanoic acid] | –
7.7 | 1.2 | 1.4 | – | COC[C@@H]1CCCN1CCOc1ccc(CN2C(=O)C(C(=O)Nc3ccc(C(F)(F)F)cc3-c3cc(C(F)(F)F)ncn3)=C(O)C3(CCC3)N2C)c(F)c1F [Example 345, 6-[[2,3-Difluoro-4-[2-[(2S)-2-(methoxymethyl)pyrrolidin-1-yl]ethoxy]phenyl]methyl]-9-hydroxy-5-methyl-7-oxo-N-[4-(trifluoromethyl)-2-[6-(trifluoromethyl)pyrimidin-4-yl]phenyl]-5,6-diazaspiro[3.5]non-8-ene-8-carboxamide] | –
– | 1.9 | 1.2 | 4.6 | CN(C)CC(C)(C)COc1ccc(CN2C(=O)C(C(=O)Nc3ccc(C(F)(F)F)cc3-c3cc(C(F)(F)F)ncn3)=C(O)C3(CCCC3)N2C)c(F)c1F [Example 414, 7-(4-(3-(Dimethylamino)-2,2-dimethylpropoxy)-2,3-difluorobenzyl)-10-hydroxy-6-methyl-8-oxo-N-(4-(tri-fluoromethyl)-2-(6-(trifluoromethyl)pyrimidin-4-yl)phenyl)-6,7-diazaspiro [4.5]dec-9-ene-9-carboxamide] | –
– | 0.9 | 1.4 | 5.8 | COCCN(C)CCOc1ccc(CN2C(=O)C(C(=O)Nc3ccc(C(F)(F)F)cc3-c3ncnc(C(F)(F)F)c3C)=C(O)C3(CCCC3)N2C)c(F)c1F [Example 416] | –

SMILES | IC50 (human NaPi-IIb; read-out: IC50) [µM] | IC50 (human PiT-1) [µM] | IC50 (human PiT-2) [µM] | IC50 (human NaPi-IIb; [2]) [µM] | inhibition in vivo at 0.1 %, 0.1 % in feed [1] [%]
CN(C[C@H](O)[C@@H](O)[C@H](O)[C@H](O)CO)C(=O)CCCOc1ccc(CN2C(=O)C(C(=O)Nc3ccc(C(F)(F)F)cc3-c3cc(C(F)(F)F)ncn3)=C(O)C3(CCCC3)N2C)c(F)c1F [Example 418, 7-[[2,3-Difluoro-4-[4-[methyl-[(2S,3R,4R,5R)-2,3,4,5,6-penta-hydroxyhexyl]amino]-4-oxobutoxy]phenyl]methyl]-10-hydroxy-6-methyl-8-oxo-N-[4-(trifluoromethyl)-2-[6-(trifluoromethyl)pyrimidin-4-yl]phenyl]-6,7-diazaspiro[4.5]dec-9-ene-9-carboxamide] | – | 4.1 | 4.6 | 10.9 | –
